Assay [1] addresses PI3Kγ (p110γ) Recombinant Human Protein (Homo sapiens (Human), UniProt P48736). Briefly: PI3K-γ Scintillation Proximity Assay. The format is biochemical. The conditions noted are these: read-out: PI3K-gamma SPA IC50. In short, it runs like this: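 Radiometric SPA: reaction at room temperature for 120 min using 2 μM ATP with [γ-33P]ATP tracer, 20 μM PIP2 substrate and 13 nM human PI3Kγ (MOPS pH 6.7, MgCl2, DTT, CHAPS; 2% DMSO). EDTA quench with WGA beads, scintillation count, and IC50 fit of percent-of-control activity.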

Assay [2] has as its target PI3Kδ (p110δ/p85α) Recombinant Human Protein (Homo sapiens (Human), UniProt O00329). Briefly: PI3Kδ Scintillation Proximity Assay. In kind it is biochemical. To be noted: read-out: PI3K-delta SPA IC50. In short, it runs like this: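 IC50 was fitted to percent solvent-control activity from SPA scintillation counts after WGA bead capture of 33P-labelled lipid product. Reaction: 120 min, room temperature, 3.4 nM p110δ/p85α, 20 μM PIP2, 2 μM ATP with tracer, MOPS pH 6.7 buffer containing MgCl2, DTT, CHAPS, 2% DMSO.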
Background: SPA uses beads or plates that emit light when radiolabelled molecules are held near them.

Assay [3] deals with Phosphorylated Ribosomal Protein S6 (RPS6) in THP-1 cells. Briefly: THP-1 RPS6 ELISA Assay. The format is cell-based, Human. The conditions noted are these: Homo sapiens, MCP-1 stimulated, phospho-RPS6 ELISA, read-out: THP p-RPS6 ELISA IC50. The procedure: Example A. THP-1 RPS6 ELISA Assay
To measure the Phosphorylated Ribosomal Protein S6 (RPS6) in cell lysates, THP-1 cells (Human Acute Monocytic Leukemia) are purchased from ATCC (Manassas, Va.) and maintained in RPMI with 10% FBS (Gibco/Life Technologies, Carlsbad, Calif.). For the assay, THP-1 cells are serum starved overnight in RPMI, then plated in RPMI (2×10^5 cells/well in 90 μL) into 96-well flat-bottom tissue culture treated plates (Corning, Corning, N.Y.), in the presence or absence of a concentration range of test compounds. Covered plates are incubated for 2 hours at 37° C., 5% CO2 then treated with or without 10 nM MCP-1 (MYBioSource, San Diego, Calif.) for 15 minutes at 37° C., 5% CO2. Plates are centrifuged at 1600 RPM and supernatants are removed. Cells are lysed in Lysis Buffer (Cell Signaling, Danvers, Mass.) with Protease Inhibitor (Calbiochem/EMD, Germany), PMSF (Sigma, St Louis Mo.), HALTS (Thermo Fisher, Rockford, Ill.) for 30 min on wet ice. Cell lysates are frozen at −80° C. before testing. The lysates are tested in the Human/Mouse/Rat Phospho-RPS6 ELISA (R&D Systems, Inc. Minn, Minn.). The plate is measured using a microplate reader (SpectraMax M5—Molecular Devices, LLC Sunnyvale, Calif.) set to 450 nm with a wavelength correction of 540. IC50 determination is performed by fitting the curve of inhibitor percent inhibition versus the log of the inhibitor concentration using the GraphPad Prism 5.0 software.
(ELISA stands for enzyme-linked immunosorbent assay.)

Counter-ions that a name gives are not always drawn.

Chain of PI3Kδ (p110δ/p85α) Recombinant Human Protein (O00329 whole entry): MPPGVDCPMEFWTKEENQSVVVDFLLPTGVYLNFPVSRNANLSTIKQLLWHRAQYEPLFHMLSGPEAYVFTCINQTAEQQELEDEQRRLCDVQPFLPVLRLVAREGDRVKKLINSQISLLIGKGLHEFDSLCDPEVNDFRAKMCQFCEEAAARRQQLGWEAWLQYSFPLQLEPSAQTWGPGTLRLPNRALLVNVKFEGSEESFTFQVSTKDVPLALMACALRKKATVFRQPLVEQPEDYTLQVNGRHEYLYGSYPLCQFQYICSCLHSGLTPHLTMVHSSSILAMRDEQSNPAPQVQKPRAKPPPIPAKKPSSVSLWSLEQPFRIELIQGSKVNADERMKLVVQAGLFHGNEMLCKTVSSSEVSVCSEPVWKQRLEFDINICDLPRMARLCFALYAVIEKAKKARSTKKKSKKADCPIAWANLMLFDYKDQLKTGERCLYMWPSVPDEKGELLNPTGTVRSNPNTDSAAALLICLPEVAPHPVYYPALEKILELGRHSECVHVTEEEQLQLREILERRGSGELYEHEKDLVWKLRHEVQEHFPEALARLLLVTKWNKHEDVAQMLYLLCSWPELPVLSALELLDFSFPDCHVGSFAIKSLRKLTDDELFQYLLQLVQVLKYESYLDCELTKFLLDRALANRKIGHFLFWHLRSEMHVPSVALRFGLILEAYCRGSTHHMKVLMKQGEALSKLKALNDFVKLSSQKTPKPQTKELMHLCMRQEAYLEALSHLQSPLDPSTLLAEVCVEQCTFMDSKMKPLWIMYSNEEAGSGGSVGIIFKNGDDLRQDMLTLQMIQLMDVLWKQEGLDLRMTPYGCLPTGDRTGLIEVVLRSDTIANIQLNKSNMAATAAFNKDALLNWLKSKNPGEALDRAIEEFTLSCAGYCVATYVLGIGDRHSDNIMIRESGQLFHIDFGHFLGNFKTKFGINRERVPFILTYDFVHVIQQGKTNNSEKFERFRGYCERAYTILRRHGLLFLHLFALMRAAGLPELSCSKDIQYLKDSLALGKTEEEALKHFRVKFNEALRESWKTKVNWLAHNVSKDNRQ
Chain of PI3Kδ (p110δ/p85α) Recombinant Human Protein (P27986 whole entry partner): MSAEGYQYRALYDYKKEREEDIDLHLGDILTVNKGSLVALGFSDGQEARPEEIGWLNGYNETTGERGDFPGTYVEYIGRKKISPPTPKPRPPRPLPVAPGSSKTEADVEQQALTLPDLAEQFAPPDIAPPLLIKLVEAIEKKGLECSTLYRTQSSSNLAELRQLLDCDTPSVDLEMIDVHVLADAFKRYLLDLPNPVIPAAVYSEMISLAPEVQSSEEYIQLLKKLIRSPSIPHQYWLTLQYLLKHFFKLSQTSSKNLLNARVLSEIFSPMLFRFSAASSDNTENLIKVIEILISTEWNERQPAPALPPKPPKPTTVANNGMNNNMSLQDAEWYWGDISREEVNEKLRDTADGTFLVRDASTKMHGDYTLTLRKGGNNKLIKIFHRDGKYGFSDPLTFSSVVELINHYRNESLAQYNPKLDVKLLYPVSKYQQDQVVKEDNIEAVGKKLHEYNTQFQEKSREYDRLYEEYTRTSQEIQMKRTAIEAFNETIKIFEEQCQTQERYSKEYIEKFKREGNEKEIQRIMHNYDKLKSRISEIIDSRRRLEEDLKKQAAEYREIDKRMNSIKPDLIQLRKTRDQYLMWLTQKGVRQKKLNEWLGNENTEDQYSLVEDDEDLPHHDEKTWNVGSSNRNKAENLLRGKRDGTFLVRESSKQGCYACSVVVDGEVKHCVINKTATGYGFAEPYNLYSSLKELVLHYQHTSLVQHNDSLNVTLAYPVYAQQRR
Chain of PI3Kγ (p110γ) Recombinant Human Protein (P48736 whole entry): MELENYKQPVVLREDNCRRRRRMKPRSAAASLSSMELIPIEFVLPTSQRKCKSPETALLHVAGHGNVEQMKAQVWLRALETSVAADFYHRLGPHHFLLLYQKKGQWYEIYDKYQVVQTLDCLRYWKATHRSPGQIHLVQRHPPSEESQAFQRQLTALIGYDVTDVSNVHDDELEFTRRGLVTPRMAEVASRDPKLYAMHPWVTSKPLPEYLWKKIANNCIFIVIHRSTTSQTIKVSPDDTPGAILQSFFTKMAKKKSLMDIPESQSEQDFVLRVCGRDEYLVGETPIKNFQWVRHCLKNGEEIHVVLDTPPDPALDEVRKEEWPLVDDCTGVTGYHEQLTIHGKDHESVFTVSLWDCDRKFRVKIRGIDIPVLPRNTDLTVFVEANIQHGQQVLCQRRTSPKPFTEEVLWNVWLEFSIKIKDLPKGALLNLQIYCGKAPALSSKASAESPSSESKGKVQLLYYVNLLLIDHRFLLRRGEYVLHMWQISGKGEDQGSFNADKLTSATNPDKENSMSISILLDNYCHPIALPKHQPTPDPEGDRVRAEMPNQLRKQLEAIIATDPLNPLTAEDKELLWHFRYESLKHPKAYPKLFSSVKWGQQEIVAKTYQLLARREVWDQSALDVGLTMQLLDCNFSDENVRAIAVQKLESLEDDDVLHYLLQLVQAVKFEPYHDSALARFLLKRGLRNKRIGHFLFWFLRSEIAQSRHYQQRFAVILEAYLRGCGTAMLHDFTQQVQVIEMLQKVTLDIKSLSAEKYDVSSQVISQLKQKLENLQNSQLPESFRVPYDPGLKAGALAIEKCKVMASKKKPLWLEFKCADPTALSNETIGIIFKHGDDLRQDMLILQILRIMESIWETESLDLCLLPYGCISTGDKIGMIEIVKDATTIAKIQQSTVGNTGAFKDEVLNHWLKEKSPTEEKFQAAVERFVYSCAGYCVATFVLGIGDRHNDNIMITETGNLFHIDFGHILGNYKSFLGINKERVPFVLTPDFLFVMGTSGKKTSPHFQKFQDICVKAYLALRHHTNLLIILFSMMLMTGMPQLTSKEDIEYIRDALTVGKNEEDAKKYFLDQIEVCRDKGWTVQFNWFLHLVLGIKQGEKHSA

On to `Cc1nc(-c2cc(-c3cncc(C(=O)NCC4CCC4)c3)ccn2)[nH]c1C` [Example 206, N-(Cyclobutylmethyl)-2′-(4,5-dimethyl-1H-imidazol-2-yl)-3,4′-bipyridine-5-carboxamide trifluoroacetate salt], for which the IC50 in assay [1] was no more than 100 nM; in assay [2], no more than 100 nM; in assay [3] it was 1000 to 5000 nM.
For `CS(=O)(=O)c1cncc(-c2ccnc(-c3nc(C4CCCCC4)c(N)[nH]3)c2)c1` [Example 120, 4-Cyclohexyl-2-[5-(methylsulfonyl)-3,4′-bipyridin-2′-yl]-1H-imidazol-5-amine Trifluoroacetate Salt], the IC50 in assay [1] was no more than 100 nM; in assay [2] it was no more than 50 nM; in assay [3], greater than 5000 nM.
For the molecule `Cc1[nH]c(-c2cc(-c3cncc(N4CCOCC4)c3)ccn2)nc1C(=O)NC1CCSCC1` [Example 281, 5-Methyl-2-(5-morpholin-4-yl-3,4′-bipyridin-2′-yl)-N-(tetrahydro-2H-thiopyran-4-yl)-1H-imidazole-4-carboxamide trifluoroacetate salt], the IC50 in assay [1] was no more than 50 nM; in assay [2], no more than 50 nM; in assay [3], no more than 300 nM.
On to `Cc1nc(-c2cc(-c3cncc(C(=O)N4CC[C@@H](F)C4)c3)ccn2)[nH]c1C` [Example 155, (R)-(2′-(4,5-Dimethyl-1H-imidazol-2-yl)-3,4′-bipyridin-5-yl)(3-fluoropyrrolidin-1-yl)methanone trifluoroacetate salt], for which the IC50 in assay [1] was no more than 50 nM; in assay [2], no more than 50 nM; in assay [3] it was no more than 300 nM.
As for `CCc1[nH]c(-c2cc(-c3cncc(N4CCOCC4)c3)ccn2)nc1C` [Example 105, 4-(2′-(5-Ethyl-4-methyl-1H-imidazol-2-yl)-3,4′-bipyridin-5-yl)morpholine], the results for the IC50 in assay [1], in assay [2] and in assay [3] were no more than 100 nM, no more than 100 nM and no more than 300 nM, respectively.
As to `Cc1[nH]c(-c2cc(-c3cncc(N4CCOCC4)c3)ccn2)nc1C(=O)NC(C)(C)C` [Example 266, N-(tert-Butyl)-5-methyl-2-(5-morpholin-4-yl-3,4′-bipyridin-2′-yl)-1H-imidazole-4-carboxamide], the IC50 in assay [1] is no more than 50 nM; in assay [2], no more than 50 nM; in assay [3] it was no more than 300 nM.
With `CCc1cnc(-c2cc(-c3cncc(S(C)(=O)=O)c3)ccn2)[nH]1` [Example 110, 2′-(5-Ethyl-1H-imidazol-2-yl)-5-(methylsulfonyl)-3,4′-bipyridine trifluoroacetate salt], the IC50 in assay [1] was no more than 50 nM; in assay [2], no more than 50 nM; in assay [3], 300 to 1000 nM.
`O=C(Nc1cncc(-c2ccnc(-c3ncc(-c4ccccc4)[nH]3)c2)c1)C1CCCC1` [Example 138, N-(2′-(5-Phenyl-1H-imidazol-2-yl)-3,4′-bipyridin-5-yl)cyclopentanecarboxamide]: the IC50 was no more than 500 nM in assay [1], no more than 100 nM in assay [2] and greater than 5000 nM in assay [3].
In the same order, the values of `Cc1nc(-c2cc(-c3cncc(S(C)(=O)=O)c3)ccn2)[nH]c1C1CC1` [Example 116, 2′-(5-Cyclopropyl-4-methyl-1H-imidazol-2-yl)-5-(methylsulfonyl)-3,4′-bipyridine trifluoroacetate salt] are no more than 50 nM, no more than 50 nM and no more than 300 nM.
Consider `CS(=O)(=O)c1cncc(-c2ccnc(-c3ncc(C4CC4)[nH]3)c2)c1` [Example 112, 2′-(5-Cyclopropyl-1H-imidazol-2-yl)-5-(methylsulfonyl)-3,4′-bipyridine trifluoroacetate salt], for which the IC50 in assay [1] is no more than 50 nM; in assay [2], no more than 50 nM; in assay [3] it was 300 to 1000 nM.
Consider `Cc1nc(-c2cc(-c3cncc(C(=O)N4CCC(=O)C4)c3)ccn2)[nH]c1C` [Example 168, 1-(2′-(4,5-Dimethyl-1H-imidazol-2-yl)-3,4′-bipyridine-5-carbonyl)pyrrolidin-3-one trifluoroacetate salt], for which the IC50 in assay [1] is no more than 50 nM; in assay [2], no more than 50 nM; in assay [3], no more than 300 nM.
In the case of `Cc1nc(-c2cc(-c3cncc(C(=O)NC(C)(C)C)c3)ccn2)[nH]c1C` [Example 208, N-(tert-Butyl)-2′-(4,5-dimethyl-1H-imidazol-2-yl)-3,4′-bipyridine-5-carboxamide trifluoroacetate salt], the figures for the IC50 in assay [1], in assay [2] and in assay [3] were no more than 50 nM, no more than 100 nM and 1000 to 5000 nM, respectively.
`Cc1cnc(-c2cc(-c3cncc(S(C)(=O)=O)c3)ccn2)[nH]1` [Example 107, 2′-(5-Methyl-1H-imidazol-2-yl)-5-(methylsulfonyl)-3,4′-bipyridine trifluoroacetate salt]: the results for the IC50 in assay [1], in assay [2] and in assay [3] were no more than 100 nM, no more than 100 nM and no more than 300 nM, respectively.
In the case of `Cc1[nH]c(-c2cc(-c3cncc(N4CCOCC4)c3)ccn2)nc1C(=O)N1CC(C)(C)C1` [Example 267, 2′-{4-[(3,3-Dimethylazetidin-1-yl)carbonyl]-5-methyl-1H-imidazol-2-yl}-5-morpholin-4-yl-3,4′-bipyridine], the IC50 in assay [1] was no more than 50 nM; in assay [2] it was no more than 50 nM; in assay [3], 1000 to 5000 nM.
Regarding `Cc1nc(-c2cc(-c3cncc(N4CC[C@@H](O)C4)c3)ccn2)[nH]c1C` [Example 231, (3R)-1-[2′-(4,5-Dimethyl-1H-imidazol-2-yl)-3,4′-bipyridin-5-yl]pyrrolidin-3-ol], the IC50 in assay [1] was no more than 50 nM; in assay [2], no more than 100 nM; in assay [3] it was 300 to 1000 nM.
In the same order, the values of `Cc1nc(-c2cc(-c3cncc(C(=O)NC(C)C)c3)ccn2)[nH]c1C` [Example 157, 2′-(4,5-Dimethyl-1H-imidazol-2-yl)-N-isopropyl-3,4′-bipyridine-5-carboxamide trifluoroacetate salt] are no more than 100 nM, no more than 500 nM and 1000 to 5000 nM.
With `O=S(=O)(C1CCCC1)n1cc(-c2ccnc(-c3ncc(-c4ccccc4)[nH]3)c2)cn1` [Example 54, 4-(1-(Cyclopentylsulfonyl)-1H-pyrazol-4-yl)-2-(5-phenyl-1H-imidazol-2-yl)pyridine trifluoroacetate salt], the IC50 in assay [1] was no more than 100 nM; in assay [2], no more than 100 nM; in assay [3], greater than 5000 nM.
Regarding `COc1cncc(-c2ccnc(-c3cnc(-c4ccccc4)[nH]3)c2)c1` [Example 74, 5-Methoxy-2′-(2-phenyl-1H-imidazol-5-yl)-3,4′-bipyridine], the results for the IC50 in assay [1], in assay [2] and in assay [3] were no more than 50 nM, no more than 50 nM and greater than 5000 nM, respectively.
On to `Cc1nc(-c2cc(-c3cncc(C(=O)N4CCC(C)(O)C4)c3)ccn2)[nH]c1C` (racemic) [Example 180, 1-{[2′-(4,5-Dimethyl-1H-imidazol-2-yl)-3,4′-bipyridin-5-yl]carbonyl}-3-methylpyrrolidin-3-ol trifluoroacetate salt], for which the IC50 is no more than 50 nM in assay [1], no more than 50 nM in assay [2] and 1000 to 5000 nM in assay [3].
Take `Cc1nc(-c2cc(-c3cncc(C(=O)N4CCC5(CC4)COC5)c3)ccn2)[nH]c1C` [Example 165, (2′-(4,5-Dimethyl-1H-imidazol-2-yl)-3,4′-bipyridin-5-yl)(2-oxa-7-azaspiro[3.5]nonan-7-yl)methanone trifluoroacetate salt]: the IC50 was no more than 50 nM in assay [1], no more than 100 nM in assay [2] and no more than 300 nM in assay [3].
